Values after ≈ are worked out from the molar mass of the structure shown. “Also recorded” adds a separate entry of the source. Where two headings read alike, the source gives them in different places.
Columns and labels:
[1] = tested on: Staphylococcus aureus FDA 209P JC-1; test: MIC; assay type: cell-based; details: FDA209P, gram positive
Procedure: (§1) In accordance with the method as disclosed in Chemotherapy, Vol. 29, pages 76-79 (1981), MIC (μg/ml) of each test compound was measured.

[2] = tested on: Staphylococcus epidermidis; test: MIC; assay type: cell-based; details: gram positive
Procedure: as §1

[3] = tested on: Proteus Vulgaris HX-19; test: MIC; assay type: cell-based; details: gram negative
Procedure: as §1

[4] = tested on: Salmonella paratyphi 1015; test: MIC; assay type: cell-based; details: Salmonella enterica
Procedure: as §1

[5] = tested on: Escherichia coli NIHJ JC-2; test: MIC; assay type: cell-based; details: NIHJJC2, gram negative
Procedure: as §1

[6] = tested on: Klebsiella pneumoniae PCI-602; test: MIC; assay type: cell-based; details: PCI602, gram negative
Procedure: as §1

[7] = tested on: Bacillus subtilis ATCC 6633; test: MIC; assay type: cell-based; details: ATCC6633, gram positive
Procedure: as §1

[8] = tested on: Pseudomonas aeruginosa IFO 3445; test: MIC; assay type: cell-based
Procedure: as §1

[9] = tested on: ddY-strain male mice; test: in vivo; assay type: in vivo; details: 10080 min
Procedure: (§2) The acute toxicities in oral administration and intravenous injection of the test compounds were tested as follows:
(§3) In intravenous administration: Each of the test compounds was dissolved in 1N aqueous sodium hydroxide solution and thereto was added a phosphoric acid-saline buffer (pH 7.2) to prepare a test solution. The test solution was intravenously injected to ddy-strain male mice (weighing 20-25 g, five per group). One week after the administration of the test solution, the LD50 was determined in accordance with Weil method.

[10] = tested on: Serratia marcescens IAM 1184; test: MIC; assay type: cell-based; details: IAM1184, gram negative
Procedure: as §1

[11] = tested on: ddY-strain male mice; test: in vivo; details: mice, p.o., one week, Weil method; 10080 min
Procedure: as §2
(§4) In oral administration: To ddY-strain male mice (weighing 20-25 g, five per group) was administered orally a suspension of each test compound in a 0.5% sodium carboxymethylcellulose. […] J. Biometric Soc., 8, 249 (1959)].

[12] = Bioavailability in oral administration in rats; assay type: in vivo, Wistar-strain male rats; set-up: AUC at 4 h: concentration or dose not given beside the values; details: rat
Procedure: Each of the test compounds was suspended in a 0.5% sodium carboxymethylcellulose to prepare a suspension having a concentration of 5 mg/ml of the test compound.
Wistar-strain male rats (weighing 160 g ±20 g, three per group) were used. The suspension was orally administered to rats fasted 16 hours. 30, 60, 120, and 240 minutes after the administration of the test compound, blood was taken out from the rats. The blood was centrifuged at 3,000 rpm for 20 minutes to obtain a plasma sample. In the same manner as described in Experiment 2, the concentration (μg/ml) of test compound in plasma and also AUC (μg.hr/ml) were measured.

[13] = Bioavailability in oral administration in mice; assay type: in vivo, ddY-strain male mice; details: for AUC at 4 h / concentration at 0.5 h / concentration at 1 h / concentration at 2 h / concentration at 4 h: mouse
Procedure: Each of the test compounds was suspended in a 0.5% sodium carboxymethylcellulose to prepare a suspension having a concentration of 5 mg/ml of the compound.
ddY-strain male mice (5 week old, weighing 22 to 25 g, three per group) were used. The suspension was orally administered to mice fasted for 16 hours. The dose of the test compound was adjusted to 50 mg/kg of body weight of animal. 30, 60, 120, and 240 minutes after the administration of the test compound, blood was taken out from each mouse, and the blood sample thus obtained was centrifuged at 3,000 rpm for 20 minutes to obtain a serum sample.

[14] = tested on: ddY-strain male mice; details: i.v.; data reported at Nippon Kagakuryohogakkai 28th Meeting (1980, Tokyo); 10080 min; cited from earlier work
[15] = tested on: ddY-strain male mice; details: p.o.; data reported at Nippon Kagakuryohogakkai 28th Meeting (1980, Tokyo); 10080 min; cited from earlier work
[16] = in vivo; assay type: in vivo; details: mouse, in vivo, iv
Procedure: as §2, §3

[17] = in vivo; details: mouse, in vivo, po
Procedure: as §2, §4

[18] = tested on: Microorganisms; test: In vitro anti-microbial activity (MIC), overall; assay type: cell-based; details: Experiment 1
Procedure: as §1

[19] = IFO3445, gram negative, read-out: MIC
[20] = mice, i.v., one week, Weil method
[21] = plasma, rats, oral, after 30 min., read-out: Concentration in plasma
[22] = plasma, rats, oral, after 60 min., read-out: Concentration in plasma
[23] = plasma, rats, oral, after 120 min., read-out: Concentration in plasma
[24] = plasma, rats, oral, after 240 min., read-out: Concentration in plasma
[25] = rats, oral, plasma, 1-4 hrs., read-out: AUC
[26] = serum, mice, oral 50 mg/kg, after 30 min., read-out: Concentration in serum
[27] = serum, mice, oral 50 mg/kg, after 60 min., read-out: Concentration in serum
[28] = serum, mice, oral 50 mg/kg, after 120 min., read-out: Concentration in serum
[29] = serum, mice, oral 50 mg/kg, after 240 min., read-out: Concentration in serum
[30] = mice, oral 50 mg/kg, serum, 1-4 hrs., read-out: AUC

SMILES	MIC [1] [µg/mL]	MIC [2] [µg/mL]	MIC [3] [µg/mL]	MIC [4] [µg/mL]	MIC [5] [µg/mL]	MIC [6] [µg/mL]	MIC [7] [µg/mL]	MIC [8, 19] [µg/mL]	MIC [10] [µg/mL]	concentration at 0.5 h [12, 21] [ng/mL]	concentration at 1 h [12, 22] [ng/mL]	concentration at 2 h [12, 23] [ng/mL]	concentration at 4 h [12, 24] [ng/mL]	AUC at 4 h [12, 25] [ng·h/mL]	concentration at 0.5 h [13, 26] [ng/mL]	concentration at 1 h [13, 27] [ng/mL]	concentration at 2 h [13, 28] [ng/mL]	concentration at 4 h [13, 29] [ng/mL]	AUC at 4 h [13, 30] [ng·h/mL]	other results
CCn1cc(C(=O)O)c(=O)c2cc(F)c(N3CCN(C)CC3)cc21 [B, 1-ethyl-1,4-dihydro-6-fluoro-7-[1-(4-methylpiperazinyl)]-4-oxoquinoline-3carboxylic acid]	0.39 (≈ 1.17 µM)	0.78 (≈ 2.34 µM)	0.1 (≈ 0.3 µM)	0.1 (≈ 0.3 µM)	0.39 (≈ 1.17 µM)	0.1 (≈ 0.3 µM)	0.2 (≈ 0.6 µM)	1.56 (≈ 4.68 µM)	–	–	–	–	–	–	–	–	–	–	–	–
CCn1cc(C(=O)O)c(=O)c2cc(F)c(N3CCNCC3)c(F)c21 [C, 1-ethyl-6,8-difluoro-1,4-dihydro-4-oxo-7-(1-piperazinyl)quinoline-3-carboxylic acid]	0.39 (≈ 1.16 µM)	3.13 (≈ 9.28 µM)	0.1 (≈ 0.296 µM)	0.1 (≈ 0.296 µM)	0.2 (≈ 0.593 µM)	0.1 (≈ 0.296 µM)	0.39 (≈ 1.16 µM)	0.78 (≈ 2.31 µM)	0.78 (≈ 2.31 µM)	–	–	–	–	–	–	–	–	–	–	LD50 [9, 20]: 193 mg/kg; LD50 [11]: 1,072 mg/kg; AUC at 4 h ([12]; in vivo, po): 26000 ng·h/mL; concentration at 0.5 h ([12]; in vivo, po): 11700 ± 1100 ng/mL; concentration at 1 h ([12]; in vivo, po): 12300 ± 800 ng/mL; concentration at 2 h ([12]; in vivo, po): 6400 ± 300 ng/mL; concentration at 4 h ([12]; in vivo, po): 2000 ± 1800 ng/mL; AUC at 4 h ([13]; in vivo, po, 50 mg/kg): 12400 ng·h/mL; concentration at 0.5 h ([13]; in vivo, po, 50 mg/kg): 6260 ± 1570 ng/mL; concentration at 1 h ([13]; in vivo, po, 50 mg/kg): 3510 ± 1290 ng/mL; concentration at 2 h ([13]; in vivo, po, 50 mg/kg): 3410 ± 670 ng/mL; concentration at 4 h ([13]; in vivo, po, 50 mg/kg): 1530 ± 270 ng/mL
CCn1cc(C(=O)O)c(=O)c2cc(F)c(N3CCNCC3)cc21 [Compound A, 1-ethyl-1,4-dihydro-6-fluoro-4-oxo-7-(1-piperazinyl)quinoline-3-carboxylicacid]	0.39 (≈ 1.22 µM)	3.13 (≈ 9.8 µM)	0.1 (≈ 0.313 µM)	0.1 (≈ 0.313 µM)	0.39 (≈ 1.22 µM)	0.1 (≈ 0.313 µM)	0.39 (≈ 1.22 µM)	–	0.39 (≈ 1.22 µM)	1810 ± 140	1190 ± 20	630 ± 110	250 ± 10	2990	1050 ± 240	690 ± 70	400 ± 50	360 ± 30	2000	LD50 [14]: 220 mg/kg; MIC ([8]; IFO3445): 1.56 µg/mL (≈ 4.89 µM); LD50 [15]: > 4,000 mg/kg
CCn1cc(C(=O)O)c(=O)c2cc(F)c(N3CCN(C)CC3)c(F)c21 [D, 1-ethyl-6,8-difluoro-1,4-dihydro-7-[1-(4-methylpiperazinyl)]-4-oxoquinoline-3-carboxylic acid]	0.78 (≈ 2.22 µM)	1.56 (≈ 4.44 µM)	0.05 (≈ 0.142 µM)	0.1 (≈ 0.285 µM)	0.2 (≈ 0.569 µM)	0.1 (≈ 0.285 µM)	0.2 (≈ 0.569 µM)	1.56 (≈ 4.44 µM)	0.78 (≈ 2.22 µM)	22600 ± 4500	24000 ± 2300	14600 ± 1100	9300 ± 100	60400	14400 ± 800	11500 ± 900	6700 ± 600	3400 ± 400	29300	LD50 at 168 h [16]: 196 mg/kg; LD50 at 168 h [17]: 536 mg/kg
CCn1cc(C(=O)O)c(=O)c2cnc(-n3ccnc3)cc21 [E, 1-ethyl-1,4-dihydro-7-(1-imidazolyl)-4-oxo-1,6-naphthylidine-3-carboxylic acid]	> 100	> 100	3.12 (≈ 11 µM)	12.5 (≈ 44 µM)	> 100	25 (≈ 87.9 µM)	100 (≈ 352 µM)	> 100	100 (≈ 352 µM)	–	–	–	–	–	–	–	–	–	–	anti-microbial activities in vitro (MIC), in words [18]: less antimicrobial activities; also recorded: far less activities
CC1COc2c(-n3ccnc3)c(F)cc3c(=O)c(C(=O)O)cn1c23 (stereo not drawn) [F, 2,3-dihydro-9-fluoro-10-(1-imidazolyl)-3-methyl-7-oxo-7H-pyrido[1,2,3-de][1,4]benzoxazine-6-carboxylic acid]	0.19 (≈ 0.577 µM)	1.56 (≈ 4.74 µM)	0.025 (≈ 0.0759 µM)	0.05 (≈ 0.152 µM)	0.39 (≈ 1.18 µM)	0.05 (≈ 0.152 µM)	0.1 (≈ 0.304 µM)	3.12 (≈ 9.48 µM)	3.12 (≈ 9.48 µM)	–	–	–	–	–	6400 ± 1800	2600 ± 1000	1200 ± 300	600 ± 200	7500	bioavailability when administered orally, in words ([13]; mice, oral, Experiment 2): inferior to the compounds of the present invention in the bioavailability
CCn1cc(C(=O)O)c(=O)c2cc(F)c(-n3ccnc3)c(F)c21 [I-a, 1-Ethyl-6,8-difluoro-1,4-dihydro-7-(1-imidazolyl)-4-oxoquinoline-3-carboxylic acid]	0.39 (≈ 1.22 µM)	3.13 (≈ 9.8 µM)	0.025 (≈ 0.0783 µM)	0.05 (≈ 0.157 µM)	0.2 (≈ 0.626 µM)	0.05 (≈ 0.157 µM)	0.1 (≈ 0.313 µM)	6.25 (≈ 19.6 µM)	1.56 (≈ 4.89 µM)	54900 ± 3900	70800 ± 3100	48000 ± 4300	31300 ± 3600	184000	44800 ± 8900	39300 ± 5200	7600 ± 1700	1700 ± 500	64900	LD50 [9, 20]: 773 mg/kg; LD50 at 168 h ([17]; mice, one week, Weil method): > 4000 mg/kg
CCn1cc(C(=O)O)c(=O)c2cc(F)c(-n3cnc(C)c3)c(F)c21 [I-b, 1-Ethyl-6,8-difluoro-1,4-dihydro-7-[1-(4-methylimidazolyl)]-4-oxoquinoline-3-carboxylic acid]	0.78 (≈ 2.34 µM)	3.13 (≈ 9.39 µM)	0.025 (≈ 0.075 µM)	0.1 (≈ 0.3 µM)	0.39 (≈ 1.17 µM)	0.1 (≈ 0.3 µM)	0.05 (≈ 0.15 µM)	6.25 (≈ 18.8 µM)	3.13 (≈ 9.39 µM)	58700 ± 5300	62900 ± 6000	52000 ± 4000	33500 ± 4900	188000	49200 ± 2500	29400 ± 2500	10000 ± 800	6300 ± 1100	67900	LD50 ([9]; mouse, in vivo, iv): 593 mg/kg; LD50 at 168 h [17]: > 4000 mg/kg

Source: patent US4530930A, “Antimicrobial 1-ethyl-6,8-difluoro-1,4-dihydro-7-(1-imidazolyl)-4-oxoquinoline-3-carbo xylic acid derivatives” (Kanebo, Ltd., priority 1982, dated 1985)
